Measured values: the NIST ThermoML archive (doi:10.1016/j.tca.2011.08.002)
Numbers after ± are expanded uncertainties.

Experiment: xn = mol fraction of the nth substance listed
Conditions: 101 kPa, Liquid, Vibrating tube method

Q: For `C1CCC(NC2CCCCC2)CC1` [N-cyclohexylcyclohexanamine] + CCCO, which mass density (288.15 K, x2 = 0) is on record?
A: 915.498 ± 0.23 kg/m3

Q: And the mass density (288.15 K, x2 = 0.0527)?
A: 914.71 ± 0.23 kg/m3

Q: What about the mass density (288.15 K, x2 = 0.1009) of the same compound?
A: 913.805 ± 0.22 kg/m3

Q: What about the mass density (288.15 K, x2 = 0.2004) of the same compound?
A: 911.438 ± 0.2 kg/m3

Q: And the mass density (288.15 K, x2 = 0.3002)?
A: 908.197 ± 0.19 kg/m3

Q: What about the mass density (288.15 K, x2 = 0.4003) of the same compound?
A: 903.914 ± 0.18 kg/m3

Q: What about the mass density (288.15 K, x2 = 0.5005) of the same compound?
A: 898.063 ± 0.17 kg/m3

Q: And the mass density (288.15 K, x2 = 0.6)?
A: 889.96 ± 0.16 kg/m3

Q: What about the mass density (288.15 K, x2 = 0.6998) of the same compound?
A: 878.617 ± 0.15 kg/m3

Q: What about the mass density (288.15 K, x2 = 0.8) of the same compound?
A: 862.501 ± 0.14 kg/m3

Q: What about the mass density (288.15 K, x2 = 0.8999) of the same compound?
A: 839.78 ± 0.15 kg/m3

Q: And the mass density (288.15 K, x2 = 0.9491)?
A: 825.362 ± 0.15 kg/m3

Q: And the mass density (293.15 K, x2 = 0)?
A: 911.705 ± 0.23 kg/m3

Q: What about the mass density (293.15 K, x2 = 0.0527) of the same compound?
A: 910.893 ± 0.23 kg/m3

Q: What about the mass density (293.15 K, x2 = 0.1009) of the same compound?
A: 909.957 ± 0.22 kg/m3

Q: What about the mass density (293.15 K, x2 = 0.2004) of the same compound?
A: 907.522 ± 0.2 kg/m3

Q: And the mass density (293.15 K, x2 = 0.3002)?
A: 904.203 ± 0.19 kg/m3

Q: What about the mass density (293.15 K, x2 = 0.4003) of the same compound?
A: 899.835 ± 0.18 kg/m3

Q: What about the mass density (293.15 K, x2 = 0.5005) of the same compound?
A: 893.905 ± 0.17 kg/m3

Q: And the mass density (293.15 K, x2 = 0.6)?
A: 885.737 ± 0.16 kg/m3

Q: What about the mass density (293.15 K, x2 = 0.6998) of the same compound?
A: 874.377 ± 0.15 kg/m3

Q: And the mass density (293.15 K, x2 = 0.8)?
A: 858.315 ± 0.15 kg/m3

Q: What about the mass density (293.15 K, x2 = 0.8999) of the same compound?
A: 835.696 ± 0.15 kg/m3

Q: What about the mass density (293.15 K, x2 = 0.9491) of the same compound?
A: 821.334 ± 0.16 kg/m3

Q: What about the mass density (298.15 K, x2 = 0) of the same compound?
A: 907.923 ± 0.23 kg/m3

Q: What about the mass density (298.15 K, x2 = 0.0527) of the same compound?
A: 907.079 ± 0.23 kg/m3

Q: What about the mass density (298.15 K, x2 = 0.1009) of the same compound?
A: 906.116 ± 0.22 kg/m3

Q: And the mass density (298.15 K, x2 = 0.2004)?
A: 903.612 ± 0.2 kg/m3

Q: And the mass density (298.15 K, x2 = 0.3002)?
A: 900.208 ± 0.19 kg/m3

Q: What about the mass density (298.15 K, x2 = 0.4003) of the same compound?
A: 895.758 ± 0.18 kg/m3

Q: What about the mass density (298.15 K, x2 = 0.5005) of the same compound?
A: 889.747 ± 0.17 kg/m3

Q: And the mass density (298.15 K, x2 = 0.6)?
A: 881.518 ± 0.16 kg/m3

Q: What about the mass density (298.15 K, x2 = 0.6998) of the same compound?
A: 870.137 ± 0.16 kg/m3

Q: What about the mass density (298.15 K, x2 = 0.8) of the same compound?
A: 854.115 ± 0.15 kg/m3

Q: What about the mass density (298.15 K, x2 = 0.8999) of the same compound?
A: 831.592 ± 0.15 kg/m3

Q: And the mass density (298.15 K, x2 = 0.9491)?
A: 817.281 ± 0.16 kg/m3

Q: What about the mass density (303.15 K, x2 = 0) of the same compound?
A: 904.144 ± 0.23 kg/m3

Q: And the mass density (303.15 K, x2 = 0.0527)?
A: 903.271 ± 0.23 kg/m3

Q: And the mass density (303.15 K, x2 = 0.1009)?
A: 902.276 ± 0.22 kg/m3

Q: And the mass density (303.15 K, x2 = 0.2004)?
A: 899.7 ± 0.2 kg/m3

Q: What about the mass density (303.15 K, x2 = 0.3002) of the same compound?
A: 896.218 ± 0.19 kg/m3

Q: And the mass density (303.15 K, x2 = 0.4003)?
A: 891.683 ± 0.18 kg/m3

Q: And the mass density (303.15 K, x2 = 0.5005)?
A: 885.59 ± 0.17 kg/m3

Q: What about the mass density (303.15 K, x2 = 0.6) of the same compound?
A: 877.299 ± 0.16 kg/m3

Q: What about the mass density (303.15 K, x2 = 0.6998) of the same compound?
A: 865.887 ± 0.16 kg/m3

Q: And the mass density (303.15 K, x2 = 0.8)?
A: 849.899 ± 0.15 kg/m3

Q: And the mass density (303.15 K, x2 = 0.8999)?
A: 827.461 ± 0.15 kg/m3

Q: And the mass density (303.15 K, x2 = 0.9491)?
A: 813.202 ± 0.16 kg/m3

Q: What about the mass density (308.15 K, x2 = 0) of the same compound?
A: 900.372 ± 0.23 kg/m3

Q: What about the mass density (308.15 K, x2 = 0.0527) of the same compound?
A: 899.466 ± 0.23 kg/m3

Q: And the mass density (308.15 K, x2 = 0.1009)?
A: 898.437 ± 0.22 kg/m3

Q: What about the mass density (308.15 K, x2 = 0.2004) of the same compound?
A: 895.78 ± 0.2 kg/m3

Q: What about the mass density (308.15 K, x2 = 0.3002) of the same compound?
A: 892.225 ± 0.19 kg/m3

Q: And the mass density (308.15 K, x2 = 0.4003)?
A: 887.605 ± 0.18 kg/m3

Q: What about the mass density (308.15 K, x2 = 0.5005) of the same compound?
A: 881.429 ± 0.17 kg/m3

Q: And the mass density (308.15 K, x2 = 0.6)?
A: 873.074 ± 0.16 kg/m3

Q: What about the mass density (308.15 K, x2 = 0.6998) of the same compound?
A: 861.626 ± 0.16 kg/m3

Q: And the mass density (308.15 K, x2 = 0.8)?
A: 845.662 ± 0.16 kg/m3

Q: And the mass density (308.15 K, x2 = 0.8999)?
A: 823.3 ± 0.16 kg/m3

Q: And the mass density (308.15 K, x2 = 0.9491)?
A: 809.088 ± 0.16 kg/m3

Q: What about the mass density (313.15 K, x2 = 0) of the same compound?
A: 896.608 ± 0.23 kg/m3

Q: And the mass density (313.15 K, x2 = 0.0527)?
A: 895.664 ± 0.23 kg/m3

Q: And the mass density (313.15 K, x2 = 0.1009)?
A: 894.6 ± 0.22 kg/m3

Q: What about the mass density (313.15 K, x2 = 0.2004) of the same compound?
A: 891.876 ± 0.21 kg/m3

Q: What about the mass density (313.15 K, x2 = 0.3002) of the same compound?
A: 888.227 ± 0.19 kg/m3

Q: And the mass density (313.15 K, x2 = 0.4003)?
A: 883.521 ± 0.18 kg/m3

Q: What about the mass density (313.15 K, x2 = 0.5005) of the same compound?
A: 877.263 ± 0.17 kg/m3

Q: And the mass density (313.15 K, x2 = 0.6)?
A: 868.843 ± 0.16 kg/m3

Q: What about the mass density (313.15 K, x2 = 0.6998) of the same compound?
A: 857.35 ± 0.16 kg/m3

Q: What about the mass density (313.15 K, x2 = 0.8) of the same compound?
A: 841.4 ± 0.16 kg/m3

Q: And the mass density (313.15 K, x2 = 0.8999)?
A: 819.106 ± 0.16 kg/m3

Q: What about the mass density (313.15 K, x2 = 0.9491) of the same compound?
A: 804.934 ± 0.16 kg/m3

Q: What about the mass density (318.15 K, x2 = 0) of the same compound?
A: 892.847 ± 0.23 kg/m3

Q: And the mass density (318.15 K, x2 = 0.0527)?
A: 891.862 ± 0.23 kg/m3

Q: What about the mass density (318.15 K, x2 = 0.1009) of the same compound?
A: 890.759 ± 0.22 kg/m3

Q: What about the mass density (318.15 K, x2 = 0.2004) of the same compound?
A: 887.957 ± 0.21 kg/m3

Q: And the mass density (318.15 K, x2 = 0.3002)?
A: 884.225 ± 0.19 kg/m3

Q: What about the mass density (318.15 K, x2 = 0.4003) of the same compound?
A: 879.43 ± 0.18 kg/m3

Q: What about the mass density (318.15 K, x2 = 0.5005) of the same compound?
A: 873.086 ± 0.17 kg/m3

Q: And the mass density (318.15 K, x2 = 0.6)?
A: 864.613 ± 0.17 kg/m3

Q: And the mass density (318.15 K, x2 = 0.6998)?
A: 853.054 ± 0.16 kg/m3

Q: What about the mass density (318.15 K, x2 = 0.8) of the same compound?
A: 837.107 ± 0.16 kg/m3

Q: And the mass density (318.15 K, x2 = 0.8999)?
A: 814.869 ± 0.16 kg/m3

Q: What about the mass density (318.15 K, x2 = 0.9491) of the same compound?
A: 800.736 ± 0.17 kg/m3

Q: What about the mass density (323.15 K, x2 = 0) of the same compound?
A: 889.089 ± 0.23 kg/m3

Q: What about the mass density (323.15 K, x2 = 0.0527) of the same compound?
A: 888.061 ± 0.23 kg/m3

Q: What about the mass density (323.15 K, x2 = 0.1009) of the same compound?
A: 886.919 ± 0.22 kg/m3

Q: What about the mass density (323.15 K, x2 = 0.2004) of the same compound?
A: 884.032 ± 0.21 kg/m3

Q: And the mass density (323.15 K, x2 = 0.3002)?
A: 880.209 ± 0.2 kg/m3

Q: What about the mass density (323.15 K, x2 = 0.4003) of the same compound?
A: 875.326 ± 0.18 kg/m3

Q: And the mass density (323.15 K, x2 = 0.5005)?
A: 868.893 ± 0.18 kg/m3

Q: What about the mass density (323.15 K, x2 = 0.6) of the same compound?
A: 860.363 ± 0.17 kg/m3

Q: What about the mass density (323.15 K, x2 = 0.6998) of the same compound?
A: 848.736 ± 0.17 kg/m3

Q: What about the mass density (323.15 K, x2 = 0.8) of the same compound?
A: 832.782 ± 0.17 kg/m3

Q: And the mass density (323.15 K, x2 = 0.8999)?
A: 810.587 ± 0.17 kg/m3

Q: And the mass density (323.15 K, x2 = 0.9491)?
A: 796.489 ± 0.17 kg/m3
